Among the test systems are MDA-N; HT-29; NCI-H522; SR; ACHN; UO-31; IGROV-1; SN12C; HOP-62; SW-620; DU-145; HOP-92; U-251; EKVX; A498; BT-549; HCT-15; LOX IMVI; SNB-75; OVCAR-8.
What all share (experiment): NCI-60 cell line screen, 48 h

This note sets out measurements from ChEMBL document CHEMBL1201862, “PubChem BioAssay data set” (2004).

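Grown in 96-well plates, cells were treated for 48 hours with each compound at five concentrations. Insufficient inhibition: endpoint recorded as highest concentration tested. At the GI50, growth is halved.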 Calls of active or inactive are those of the source. Cut-off read from the data, not from the text of the source: active = GI50 up to about 1.1 µM and inactive = higher.

`Cc1nnc2n1N=C(c1ccccc1)/C(=C/c1ccc(-c3ccc(Cl)cc3)o1)S2`: the GI50 is 11.6 µM (inactive) with MDA-N; 16.5 µM (inactive) in the test on HT-29; 10.6 µM (inactive) in the test on NCI-H522; 5.77 µM (inactive) in the test on SR; 13.5 µM (inactive) in the test on ACHN; 12.8 µM (inactive) in the test on UO-31. For the same compound, the GI50 with IGROV-1 was 18.9 µM (inactive); in the test on SN12C, 15.6 µM (inactive); in the test with HOP-62 it was 15.3 µM (inactive); in the test with SW-620, 5 µM (inactive); in the test with DU-145, 14.3 µM (inactive); with HOP-92, 17.5 µM (inactive). Besides, the GI50 with U-251 was 12.1 µM (inactive); with EKVX, 20 µM (inactive); in the test on A498, 17.3 µM (inactive); with BT-549, 11.4 µM (inactive); in the test with HCT-15, 8.53 µM.
Consider `CCCn1c(=O)c2nn3c(=O)n(CCC)c(=O)c3nn2c1=O`, for which the GI50 with MDA-N, with HT-29, with NCI-H522, with SR, in the test on ACHN and in the test with UO-31 was > 100 µM (inactive) throughout. The GI50 in the test with IGROV-1, in the test with LOX IMVI, with SN12C, with HOP-62, with SW-620 and in the test on DU-145 was > 100 µM (inactive) throughout. The GI50 in the test with HOP-92, with U-251, in the test with EKVX, in the test with SNB-75, with BT-549 and with OVCAR-8 was > 100 µM (inactive) in each case. The same compound had a GI50 with HCT-15 of over 100 µM.
`CSc1nc(NC2CC2)c2c(n1)Sc1nc3ccccc3n1N=C2`: the GI50 is 40.2 µM (inactive) in the test on MDA-N; 26.3 µM (inactive) in the test on HT-29; 16.9 µM (inactive) in the test on NCI-H522; > 100 µM (inactive) with SR; 11 µM (inactive) in the test on ACHN; 16.5 µM (inactive) with UO-31. The GI50 in the test with IGROV-1 is 42.6 µM (inactive); in the test with LOX IMVI, 31.8 µM (inactive); in the test on SN12C, 8.55 µM (inactive); with HOP-62 it was 16.3 µM (inactive); with SW-620, 26.6 µM (inactive); in the test with DU-145 it was 23.5 µM (inactive). In addition, the GI50 with HOP-92 was 21 µM (inactive); in the test on U-251 it was 20 µM (inactive); in the test with EKVX, 24.2 µM (inactive); in the test on A498, 10.5 µM (inactive); in the test on BT-549 it was 34.2 µM (inactive); with OVCAR-8, 10.1 µM (inactive). In addition, in the test on HCT-15, the GI50 was 28.4 µM.
`O=C(NNC(=O)c1csc(NC(=S)NC2CCCCC2)n1)c1ccccc1`: the GI50 with MDA-N is 13.9 µM (inactive); in the test with HT-29 it was 7.23 µM (inactive); in the test with NCI-H522, 11.7 µM (inactive); in the test on SR, 2.26 µM (inactive); in the test on ACHN it was 11.4 µM (inactive); in the test with UO-31 it was 13.7 µM (inactive). The GI50 was 1.96 µM (inactive) with IGROV-1; 10.3 µM (inactive) with LOX IMVI; 5.97 µM (inactive) with SN12C; 14 µM (inactive) with HOP-62; 10.3 µM (inactive) in the test on SW-620; 18.7 µM (inactive) in the test with DU-145. The GI50 with U-251 is 3.71 µM (inactive); with EKVX, 1.84 µM (inactive); in the test on SNB-75, 83.9 µM (inactive); with A498, 38 µM (inactive); in the test with BT-549, 17.3 µM (inactive); in the test with OVCAR-8 it was 6.52 µM (inactive). In the test with HCT-15, this compound had a GI50 of 2.74 µM.
As for `CCOC(=O)c1ccc(/N=c2\oc3ccc(OC)cc3cc2-c2nc3ccccc3[nH]2)cc1`, the GI50 in the test on MDA-N was 55 µM (inactive); in the test with HT-29, > 100 µM (inactive); with NCI-H522, 71.6 µM (inactive); in the test on SR it was 59.3 µM (inactive); in the test with ACHN it was > 100 µM (inactive); in the test with UO-31, > 100 µM (inactive). Further, the GI50 was > 100 µM (inactive) in the test with IGROV-1; > 100 µM (inactive) in the test with LOX IMVI; > 100 µM (inactive) in the test on SN12C; 54.6 µM (inactive) in the test with HOP-62; 8.13 µM (inactive) with SW-620; > 100 µM (inactive) in the test with DU-145. For the same compound, the GI50 was > 100 µM (inactive) in the test on HOP-92; 31.4 µM (inactive) in the test on U-251; > 100 µM (inactive) in the test on EKVX; 14.1 µM (inactive) in the test on SNB-75; > 100 µM (inactive) with BT-549; 4.21 µM (inactive) in the test on OVCAR-8. Also, in the test on HCT-15, the GI50 is over 100 µM.
`CC(=O)c1cccc(Nc2c3ccccc3nc3occc23)c1`: the GI50 in the test with MDA-N was 2.58 µM (inactive); in the test with HT-29, 1.51 µM (inactive); with NCI-H522, 1.54 µM (inactive); in the test on SR, 0.705 µM (active); with ACHN, 9.73 µM (inactive); with UO-31, 12.5 µM (inactive). Also, the GI50 was 2.54 µM (inactive) in the test with IGROV-1; 5.04 µM (inactive) with LOX IMVI; 8.38 µM (inactive) in the test with SN12C; 3.61 µM (inactive) with HOP-62; 11 µM (inactive) in the test on DU-145; 11.5 µM (inactive) in the test with HOP-92. In addition, the GI50 in the test with U-251 was 5.16 µM (inactive); in the test with EKVX it was 25.6 µM (inactive); with A498, 31.4 µM (inactive); with BT-549, 12.3 µM (inactive); in the test on OVCAR-8 it was 15.3 µM (inactive); in the test with HCT-15 it was 3.99 µM.
`O=[N+]([O-])c1ccc(C2=NOC(c3ccccc3)N2C23CC4CC(CC(C4)C2)C3)cc1` (configuration not stated): the GI50 with MDA-N is 26.7 µM (inactive); with HT-29, 21.3 µM (inactive); in the test with NCI-H522, 19 µM (inactive); in the test on SR it was > 10 µM (inactive); in the test on ACHN it was 20.1 µM (inactive); in the test on UO-31 it was 9.23 µM (inactive). Further, the GI50 was 24.8 µM (inactive) with IGROV-1; 15.9 µM (inactive) in the test with LOX IMVI; 46 µM (inactive) with SN12C; 26.5 µM (inactive) with HOP-62; 35.3 µM (inactive) in the test on SW-620; 40 µM (inactive) in the test on DU-145. The GI50 is 34.6 µM (inactive) with U-251; 48.1 µM (inactive) in the test with EKVX; 21.9 µM (inactive) in the test on SNB-75; > 100 µM (inactive) in the test on A498; 19.8 µM (inactive) in the test on BT-549; 21.5 µM (inactive) in the test on OVCAR-8. The GI50 with HCT-15 was 29.8 µM.
Turning to `Cc1ccc(-[n+]2cc([O-])on2)cc1`, the GI50 in the test with MDA-N, in the test on HT-29, in the test on NCI-H522, with SR, in the test with ACHN and in the test with UO-31 was > 100 µM (inactive) in each case. Also, the GI50 in the test on IGROV-1, in the test on LOX IMVI, with SN12C, with HOP-62, with SW-620 and in the test with DU-145 was > 100 µM (inactive) each time. In addition, the GI50 with HOP-92 was 64 µM (inactive); with U-251 it was > 100 µM (inactive); in the test with EKVX, > 100 µM (inactive); in the test with A498 it was 65.8 µM (inactive); in the test with BT-549, > 100 µM (inactive); with OVCAR-8, > 100 µM (inactive). Also, the GI50 in the test on HCT-15 is over 100 µM.
For `C(=N\Nc1nnc(-c2nnc(N/N=C/c3ccccc3)o2)o1)/c1ccccc1`, the GI50 in the test on MDA-N, with HT-29, with SR, with ACHN, in the test with UO-31 and in the test with IGROV-1 was > 10 µM (inactive) throughout. Further, the GI50 in the test on SN12C, in the test on HOP-62, with SW-620, in the test on DU-145, with HOP-92 and in the test on U-251 was > 10 µM (inactive) throughout. The GI50 with EKVX is > 10 µM (inactive); with A498, > 10 µM (inactive); in the test with BT-549 it was > 10 µM (inactive); in the test with OVCAR-8, > 10 µM (inactive); in the test on HCT-15 it was over 10 µM.
Regarding `CN(C)Cc1ccc(-c2cc3onc(-c4ccccc4)c3c(=O)n2C)cc1`, the GI50 in the test with MDA-N is 17.6 µM (inactive); in the test on HT-29 it was 11 µM (inactive); in the test on NCI-H522, 18.7 µM (inactive); in the test with SR it was 11.7 µM (inactive); in the test with ACHN, 67.5 µM (inactive); with UO-31, 11.6 µM (inactive). Also, the GI50 in the test with IGROV-1 was 36 µM (inactive); with LOX IMVI it was 17.9 µM (inactive); with SN12C it was 55.6 µM (inactive); in the test on HOP-62, 20.7 µM (inactive); with SW-620, 21.3 µM (inactive); with DU-145, 28.8 µM (inactive). Besides, the GI50 in the test with HOP-92 is 7.87 µM (inactive); in the test on U-251, 22 µM (inactive); with EKVX, > 100 µM (inactive); with A498, 22.6 µM (inactive); with BT-549 it was 38.5 µM (inactive); in the test with OVCAR-8, 47.5 µM (inactive). The compound also gave a GI50 with HCT-15 of 20.5 µM.
For the compound `O=c1cc(CSc2c(-c3ccccc3)c(=O)n(-c3ccccc3)c(=S)n2-c2ccccc2)[nH]c(=O)[nH]1`, the GI50 in the test with MDA-N, in the test with HT-29, with SR, in the test on ACHN, with UO-31 and in the test with IGROV-1 was > 100 µM (inactive) in each case. Also, the GI50 with SN12C, in the test with HOP-62, in the test with SW-620, in the test with DU-145, in the test on U-251 and with EKVX was > 100 µM (inactive) each time. Moreover, the GI50 with SNB-75 is > 100 µM (inactive); with A498, > 100 µM (inactive); in the test with BT-549, > 100 µM (inactive); with OVCAR-8, > 100 µM (inactive); with HCT-15, over 100 µM.
